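These data come from cells grown in 96-well plates and exposed to compound for 48 hours at five concentrations. At the TGI there is no net growth.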
Legend:
Assay in all cases: NCI-60 cell line screen, 48 h
[1] = tested on: SF-295 CNS
[2] = tested on: U251 CNS
[3] = tested on: CCRF-CEM leukemia
[4] = tested on: NCI-H23 lung
[5] = tested on: RXF 393 renal
[6] = tested on: OVCAR-4 ovarian
[7] = tested on: SK-MEL-5 melanoma
[8] = tested on: HT29 colon
[9] = tested on: HCT-15 colon
[10] = tested on: KM20L2 colon
[11] = tested on: M14 melanoma
[12] = tested on: RPMI-8226 leukemia
[13] = tested on: COLO 205 colon
[14] = tested on: IGROV1 ovarian
[15] = tested on: HCT-116 colon
[16] = tested on: HOP-62 NSCLC
[17] = tested on: K-562 leukemia
[18] = tested on: MALME-3M melanoma
[19] = tested on: LXFL 529 NSCLC
[20] = tested on: CAKI-1 renal
[21] = tested on: HOP-92 NSCLC
[22] = tested on: SR leukemia
[23] = tested on: DMS 273 small cell lung
[24] = tested on: TK-10 renal
[25] = tested on: UACC-257 melanoma
[26] = tested on: SK-MEL-28 melanoma
[27] = tested on: SN12C renal
[28] = tested on: M19-MEL melanoma
[29] = tested on: MOLT-4 leukemia
[30] = tested on: KM12 colon
[31] = tested on: SNB-19 CNS
[32] = tested on: SK-OV-3 ovarian
[33] = tested on: DLD-1 colon
[34] = tested on: OVCAR-8 ovarian
[35] = tested on: NCI-H460 lung
[36] = tested on: SNB-78 CNS
[37] = tested on: SK-MEL-2 melanoma
[38] = tested on: HCC-2998 colon
[39] = tested on: SNB-75 CNS
[40] = tested on: OVCAR-3 ovarian
[41] = tested on: DMS 114 small cell lung
[42] = tested on: NCI-H226 lung
[43] = tested on: 786-0 renal
[44] = tested on: LOX IMVI melanoma
[45] = tested on: OVCAR-5 ovarian
[46] = tested on: HL-60(TB) leukemia
[47] = tested on: A549 NSCLC
[48] = tested on: UACC-62 melanoma
[49] = tested on: SW-620 colon
[50] = tested on: UO-31 renal
[51] = tested on: ACHN renal
[52] = tested on: NCI-H522 lung
[53] = tested on: SF-539 CNS
[54] = tested on: SF-268 CNS
[55] = tested on: HOP-18 NSCLC
[56] = tested on: EKVX NSCLC
[57] = tested on: A498 renal
[58] = tested on: XF 498 CNS

In the case of `C[C@@H](O)CCC(=O)c1ccoc1`, the TGI [1] is reported as > 100 µM, the TGI [2] is reported as > 100 µM and the TGI [3] is reported as > 100 µM. The TGI [4] was > 100 µM, the TGI [5] was > 100 µM and the TGI [6] was > 100 µM. For the same molecule, the TGI [7] was > 100 µM, the TGI [8] was > 100 µM and the TGI [9] was > 100 µM. For the same molecule, the TGI [10] was > 100 µM, the TGI [11] was > 100 µM and the TGI [12] was > 100 µM. For the same molecule, the TGI [13] was > 100 µM, the TGI [14] was > 100 µM and the TGI [15] was > 100 µM. The TGI [16] was > 100 µM, the TGI [17] was > 100 µM and the TGI [18] was > 100 µM. For the same molecule, the TGI [19] was > 100 µM, the TGI [20] was > 100 µM and the TGI [21] was > 100 µM. For the same molecule, the TGI [22] was > 100 µM, the TGI [23] was > 100 µM and the TGI [24] was > 100 µM. For the same molecule, the TGI [25] was > 100 µM, the TGI [26] was > 100 µM and the TGI [27] was > 100 µM. The TGI [28] was > 100 µM, the TGI [29] was > 100 µM and the TGI [30] was > 100 µM. For the same molecule, the TGI [31] was > 100 µM, the TGI [32] was > 100 µM and the TGI [33] was > 100 µM. For the same molecule, the TGI [34] was > 100 µM, the TGI [35] was > 100 µM and the TGI [36] was > 100 µM. The TGI [37] was > 100 µM, the TGI [38] was > 100 µM and the TGI [39] was > 100 µM. The TGI [40] was > 100 µM, the TGI [41] was > 100 µM and the TGI [42] was > 100 µM. The TGI [43] was > 100 µM, the TGI [44] was > 100 µM and the TGI [45] was > 100 µM. For the same molecule, the TGI [46] was > 100 µM, the TGI [47] was > 100 µM and the TGI [48] was > 100 µM. The TGI [49] was > 100 µM, the TGI [50] was > 100 µM and the TGI [51] was > 100 µM. The TGI [52] was > 100 µM, the TGI [53] was > 100 µM and the TGI [54] was > 100 µM. For the same molecule, the TGI [55] was > 100 µM, the TGI [56] was > 100 µM and the TGI [57] was > 100 µM.
With `O=S(O)CCCCCSSSCCCCCS(=O)O` the TGI [2] was > 100 µM, the TGI [3] was 37.7 µM and the TGI [4] was > 100 µM. For the same molecule, the TGI [5] was 41.8 µM, the TGI [6] was > 100 µM and the TGI [8] was > 100 µM. The TGI [10] was > 100 µM, the TGI [11] was > 100 µM and the TGI [15] was 68.1 µM. For the same molecule, the TGI [16] was > 100 µM, the TGI [17] was > 100 µM and the TGI [18] was 94 µM. For the same molecule, the TGI [19] was 27.9 µM, the TGI [22] was 30.3 µM and the TGI [58] was 36.3 µM. The TGI [24] was 93.8 µM, the TGI [25] was > 100 µM and the TGI [26] was > 100 µM. The TGI [27] was > 100 µM, the TGI [28] was > 100 µM and the TGI [29] was 60.8 µM. The TGI [30] was > 100 µM, the TGI [31] was > 100 µM and the TGI [32] was > 100 µM. The TGI [33] was > 100 µM, the TGI [35] was > 100 µM and the TGI [36] was > 100 µM. For the same molecule, the TGI [37] was 67.8 µM, the TGI [38] was > 100 µM and the TGI [39] was 94.8 µM. For the same molecule, the TGI [40] was 78.9 µM, the TGI [44] was 62.4 µM and the TGI [45] was > 100 µM. The TGI [46] was 65 µM, the TGI [48] was 55.3 µM and the TGI [50] was > 100 µM. For the same molecule, the TGI [51] was > 100 µM, the TGI [52] was 85.1 µM and the TGI [53] was > 100 µM. For the same molecule, the TGI [54] was > 100 µM, the TGI [56] was > 100 µM and the TGI [57] was > 100 µM.
